Read-outs that look alike come from different tables or passages of the source.
Legend:
[1] = system: MCF-7 (estrogen receptor positive breast cancer cells); test: Anti-proliferation activity against MCF-7 cells (MTS/PMS); format: cell-based
Protocol: (§1) Upon completion of synthesis of library of compounds in Examples 23 and 24, the compounds were evaluated for anti-proliferative activity against SkBr3 (Her2 overexpressing breast cancer cells), MCF-7 (estrogen receptor positive breast cancer cells), HCT-116 (colon cancer cells characterized by wild-type p53), PL45 (pancreatic cancer cells), LNCaP (androgen sensitive prostate cancer cells) and PC-3 (androgen independent prostate cancer cells) cell lines.
(§2) Cells were maintained in a 1:1 mixture of Advanced DMEM/F12 (Gibco) supplemented with non-essential amino acids, L-glutamine (2 mM), streptomycin (500 ng/mL), penicillin (100 units/mL), and 10% FBS. Cells were grown to confluence in a humidified atmosphere (37° C., 5% CO2), seeded (2000/well, 100 μl) in 96-well plates, and allowed to attach overnight. Compound or GDA at varying concentrations in DMSO (1% DMSO final concentration) was added, and cells were returned to the incubator for 72 hours. At 72 hours, the number of viable cells was determined using an MTS/PMS cell proliferation kit (Promega) per the manufacturer's instructions. Cells incubated in 1% DMSO were used at 100% proliferation, and values were adjusted accordingly. IC50 values were calculated from separate experiments performed in triplicate using GraphPad Prism.
as §2, with “μg/mL),” for “ng/mL),”, “μL)” for “μl)”

[2] = system: SkBr3 (Her2 overexpressing breast cancer cells); test: Anti-proliferation activity against SkBr3 cells (MTS/PMS); format: cell-based; conditions: read-out: IC50, SKBr3
Protocol: as §1, §2
as §2, with “μg/mL),” for “ng/mL),”, “μL)” for “μl)”

[3] = Homo sapiens, MCF7, Table 18, modified furanose or pyranose noviose replacements, read-out: IC50, MCF7
[4] = Homo sapiens, SK-BR-3, Table 18, modified furanose or pyranose noviose replacements
[5] = Homo sapiens, MCF7, Table 19, 7-oxyalkylamino and 7-oxypiperidinyl analogues, read-out: IC50, MCF-7
[6] = Homo sapiens, SK-BR-3, Table 19, 7-oxyalkylamino and 7-oxypiperidinyl analogues
[7] = Homo sapiens, MCF7, Table 21, substituted indole-2-carboxamide analogues with noviose replacements, read-out: IC50, MCF-7
[8] = Homo sapiens, SK-BR-3, Table 21, substituted indole-2-carboxamide analogues with noviose replacements
[9] = Table 19, 7-oxyalkylamino and 7-oxypiperidinyl analogues, read-out: IC50, MCF-7
[10] = Table 19, 7-oxyalkylamino and 7-oxypiperidinyl analogues

CC(C)=CCc1cc(C(=O)Nc2cc3ccc(O[C@H]4OCCC[C@H]4O)c(C)c3oc2=O)ccc1O [17a, KU-427, 4-Hydroxy-N-(7-((2R,3R)-3-hydroxytetrahydro-2H-pyran-2-yloxy)-8-methyl-2-oxo-2H-chromen-3-yl)-3-(3-methylbut-2-enyl)benzamide]
IC50 [1, 3]: 6450 ± 130 nM
IC50 [2, 4]: 7870 ± 40 nM

CC(C)=CCc1cc(C(=O)Nc2cc3ccc(OCCN(C)C)c(C)c3oc2=O)ccc1O [31e, KU-422, N-(7-(2-(Dimethylamino)ethoxy)-8-methyl-2-oxo-2H-chromen-3-yl)-4-hydroxy-3-(3-methylbut-2-enyl)benzamide]
IC50 [1, 5]: 9450 ± 220 nM
IC50 [2, 6]: 52700 nM

CC(C)=CCc1cc(C(=O)Nc2cc3ccc(OC4CCN(C)CC4)c(C)c3oc2=O)ccc1OCCCN(C)C [KU-457]
IC50 [1, 5]: 90 nM
IC50 [2, 6]: 350 ± 80 nM

CC(C)=CCc1cc(C(=O)Nc2cc3ccc(OC4CCNCC4)c(C)c3oc2=O)ccc1O [31b, KU-416, 4-Hydroxy-N-(8-methyl-2-oxo-7-(piperidin-4-yloxy)-2H-chromen-3-yl)-3-(3-methylbut-2-enyl)benzamide]
IC50 [1, 5]: 470 ± 100 nM
IC50 [2, 6]: 850 ± 90 nM

CC(C)=CCc1cc(C(=O)Nc2cc3ccc(OC4CCN(C)CC4)c(C)c3oc2=O)ccc1OC1CCN(C)CC1 [KU-458]
IC50 [1, 5]: 150 nM
IC50 [2, 6]: 95 nM

CC(C)=CCc1cc(C(=O)Nc2cc3ccc(OC4CCN(C)CC4)c(C)c3oc2=O)ccc1O [31a, KU-398, 4-Hydroxy-N-(8-methyl-7-(1-methylpiperidin-4-yloxy)-2-oxo-2H-chromen-3-yl)-3-(3-methylbut-2-enyl)benzamide]
IC50 [2, 6]: 1090 ± 100 nM

CC(C)=CCc1cc(C(=O)Nc2cc3ccc(OC4CCCNC4)c(C)c3oc2=O)ccc1O (stereo not drawn) [31d, KU-420, 4-Hydroxy-N-(8-methyl-2-oxo-7-(piperidin-3-yloxy)-2H-chromen-3-yl)-3-(3-methylbut-2-enyl)benzamide]
IC50 [1, 5]: 790 ± 110 nM
IC50 [2, 6]: 2110 ± 580 nM

CNCCOc1ccc2cc(NC(=O)c3ccc(O)c(CC=C(C)C)c3)c(=O)oc2c1C [31g, KU-424, 4-Hydroxy-N-(8-methyl-7-(2-(methylamino)ethoxy)-2-oxo-2H-chromen-3-yl)-3-(3-methylbut-2-enyl)benzamide]
IC50 [1, 5]: 750 ± 120 nM
IC50 [2, 6]: 1330 ± 10 nM

CC(=O)Oc1ccc(C(=O)Nc2cc3ccc(O[C@@H]4C[C@@H](O)CO4)c(C)c3oc2=O)cc1CC=C(C)C [20b, KU-433, 4-(7-((2R,4R)-4-Hydroxytetrahydrofuran-2-yloxy)-8-methyl-2-oxo-2H-chromen-3-ylcarbamoyl)-2-(3-methylbut-2-enyl)phenyl acetate]
IC50 [1, 3]: 22500 ± 400 nM
IC50 [2, 4]: 21500 ± 2280 nM

CC(C)=CCc1cc(C(=O)Nc2cc3ccc(OCCCN(C)C)c(C)c3oc2=O)ccc1O [31f, KU-407, N-(7-(3-(Dimethylamino)propoxy)-8-methyl-2-oxo-2H-chromen-3-yl)-4-hydroxy-3-(3-methylbut-2-enyl)benzamide]
IC50 [1, 5]: 440 ± 20 nM
IC50 [2, 6]: 1350 ± 380 nM

CC(C)=CCc1cc(C(=O)Nc2cc3ccc(O[C@@H]4OCCC[C@H]4O)c(C)c3oc2=O)ccc1O [17b, KU-428, 4-Hydroxy-N-(7-((2S,3R)-3-hydroxytetrahydro-2H-pyran-2-yloxy)-8-methyl-2-oxo-2H-chromen-3-yl)-3-(3-methylbut-2-enyl)benzamide]
IC50 [1, 3]: 10200 ± 210 nM
IC50 [2, 4]: 30000 ± 2070 nM

COc1cc2cc(NC(=O)c3cc4cc(Cl)ccc4[nH]3)c(=O)oc2c(C)c1OC1CCN(C)CC1 [KU-386]
IC50 [1, 7]: 4950 ± 450 nM
IC50 [2, 8]: 510 ± 110 nM

CC(C)=CCc1cc(C(=O)Nc2cc3ccc(O[C@@H]4OCC[C@@H](O)[C@H]4O)c(C)c3oc2=O)ccc1O [16b, KU-426, N-(7-((2S,3R,4R)-3,4-dihydroxytetrahydro-2H-pyran-2-yloxy)-8-methyl-2-oxo-2H-chromen-3-yl)-4-hydroxy-3-(3-methylbut-2-enyl)benzamide]
IC50 [1, 3]: 13300 ± 210 nM
IC50 [2, 4]: 6960 ± 60 nM

COc1cc2cc(NC(=O)c3cc4cc(Cl)ccc4[nH]3)c(=O)oc2c(C)c1OCCCN(C)C [KU-395]
IC50 [1, 7]: 1540 ± 150 nM
IC50 [2, 8]: 500 ± 10 nM

CNCCOc1ccc2cc(NC(=O)c3ccc(OC(C)=O)c(CC=C(C)C)c3)c(=O)oc2c1C [30g, KU-423, 4-(8-methyl-7-(2-(methylamino)ethoxy)-2-oxo-2H-chromen-3-ylcarbamoyl)-2-(3-methylbut-2-enyl)phenyl acetate]
IC50 [1, 9]: 910 ± 210 nM
IC50 [2, 10]: 2080 ± 130 nM

CC(=O)Oc1ccc(C(=O)Nc2cc3ccc(O[C@H]4C[C@@H](O)CO4)c(C)c3oc2=O)cc1CC=C(C)C [20a, KU-432, 4-(7-((2S,4R)-4-Hydroxytetrahydrofuran-2-yloxy)-8-methyl-2-oxo-2H-chromen-3-ylcarbamoyl)-2-(3-methylbut-2-enyl)phenyl acetate]
IC50 [1, 3]: > 100000 nM
IC50 [2, 4]: 22200 ± 940 nM

CC(=O)Oc1ccc(C(=O)Nc2cc3ccc(OC4CCN(C)CC4)c(C)c3oc2=O)cc1CC=C(C)C [29a, KU-397, 4-(8-Methyl-7-(1-methylpiperidin-4-yloxy)-2-oxo-2H-chromen-3-ylcarbamoyl)-2-(3-methylbut-2-enyl)phenyl acetate]
IC50 [2, 10]: 1180 ± 200 nM

CC(=O)Oc1ccc(C(=O)Nc2cc3ccc(O[C@@H]4OC[C@H](O)[C@@H]4O)c(C)c3oc2=O)cc1CC=C(C)C [19, KU-431, 4-(7-((2S,3S,4S)-3,4-Dihydroxytetrahydrofuran-2-yloxy)-8-methyl-2-oxo-2H-chromen-3-ylcarbamoyl)-2-(3-methylbut-2-enyl)phenyl acetate]
IC50 [1, 3]: 14300 ± 400 nM
IC50 [2, 4]: 14400 ± 520 nM

CC(=O)Oc1ccc(C(=O)Nc2cc3ccc(OC4CCCNC4)c(C)c3oc2=O)cc1CC=C(C)C (stereo not drawn) [30d, KU-419, 4-(8-methyl-2-oxo-7-(piperidin-3-yloxy)-2H-chromen-3-ylcarbamoyl)-2-(3-methylbut-2-enyl)phenyl acetate]
IC50 [1, 9]: 1230 nM
IC50 [2, 10]: 1540 ± 110 nM

CC(C)=CCc1cc(C(=O)Nc2cc3ccc(O[C@H]4C[C@H](O)CCO4)c(C)c3oc2=O)ccc1O [18a, KU-429, 4-Hydroxy-N-(7-((2S,4R)-4-hydroxytetrahydro-2H-pyran-2-yloxy)-8-methyl-2-oxo-2H-chromen-3-yl)-3-(3-methylbut-2-enyl)benzamide]
IC50 [1, 3]: 1340 ± 180 nM
IC50 [2, 4]: 5070 ± 230 nM

COc1c(OC2CCN(C)CC2)ccc2cc(NC(=O)c3ccc(OCCN(C)C)c(CC=C(C)C)c3)c(=O)oc12 [KU-459]
IC50 [1, 5]: 90 nM
IC50 [2, 6]: 290 nM

Cc1c(OC2CCN(C)CC2)ccc2cc(NC(=O)c3cc4cc(Cl)ccc4[nH]3)c(=O)oc12 [KU-380]
IC50 [1, 7]: 90 ± 30 nM
IC50 [2, 8]: 350 ± 210 nM

CC(=O)Oc1ccc(C(=O)Nc2cc3ccc(OC4CCCN(C)C4)c(C)c3oc2=O)cc1CC=C(C)C (stereo not drawn) [29c, KU-417, 4-(8-Methyl-7-(1-methylpiperidin-3-yloxy)-2-oxo-2H-chromen-3-ylcarbamoyl)-2-(3-methylbut-2-enyl)phenyl acetate]
IC50 [1, 9]: 1420 ± 20 nM
IC50 [2, 10]: 1570 ± 50 nM

CC(=O)Oc1ccc(C(=O)Nc2cc3ccc(OC4CCNCC4)c(C)c3oc2=O)cc1CC=C(C)C [30b, KU-415, 4-(8-methyl-2-oxo-7-(piperidin-4-yloxy)-2H-chromen-3-ylcarbamoyl)-2-(3-methylbut-2-enyl)phenyl acetate]
IC50 [1, 9]: 770 ± 270 nM
IC50 [2, 10]: 1530 ± 140 nM

CC(C)=CCc1cc(C(=O)Nc2cc3ccc(OC4CCN(C)CC4)c(C)c3oc2=O)ccc1OCCN(C)C [KU-456]
IC50 [1, 5]: 23 nM
IC50 [2, 6]: 510 nM

CC(C)=CCc1cc(C(=O)Nc2cc3ccc(OC4CCCN(C)C4)c(C)c3oc2=O)ccc1O (stereo not drawn) [31c, KU-418, 4-Hydroxy-N-(8-methyl-7-(1-methylpiperidin-3-yloxy)-2-oxo-2H-chromen-3-yl)-3-(3-methylbut-2-enyl)benzamide]
IC50 [1, 5]: 4690 ± 160 nM
IC50 [2, 6]: 10100 ± 170 nM

CC(=O)Oc1ccc(C(=O)Nc2cc3ccc(OCCCN(C)C)c(C)c3oc2=O)cc1CC=C(C)C [29f, KU-406, 4-(7-(3-(Dimethylamino)propoxy)-8-methyl-2-oxo-2H-chromen-3-ylcarbamoyl)-2-(3-methylbut-2-enyl)phenyl acetate]
IC50 [1, 9]: 460 ± 190 nM
IC50 [2, 10]: 1180 ± 30 nM

CC(C)=CCc1cc(C(=O)Nc2cc3ccc(O[C@H]4OCC[C@@H](O)[C@H]4O)c(C)c3oc2=O)ccc1O [16a, KU-425, N-(7-((2R,3R,4R)-3,4-dihydroxytetrahydro-2H-pyran-2-yloxy)-8-methyl-2-oxo-2H-chromen-3-yl)-4-hydroxy-3-(3-methylbut-2-enyl)benzamide]
IC50 [1, 3]: 10040 ± 30 nM
IC50 [2, 4]: 10680 ± 50 nM

Reference: US9120774B2 (University of Kansas, priority 2009, dated 2015)
